Data: ChEMBL document CHEMBL1140858, “Ceramicines B-D, new antiplasmodial limonoids from Chisocheton ceramicus” (Bioorg Med Chem, 2009)
Values after ≈ are worked out from the molar mass of the structure shown.

How the values were obtained:
[1] = system: P388; experiment: Cytotoxicity against mouse P388 cells by MTT assay; assay type: cell-based
[2] = system: Plasmodium falciparum; experiment: Antiplasmodial activity against Plasmodium falciparum 3D7 by Giemsa staining; assay type: functional, organism-based

| SMILES | IC50 [1] [µg/mL] | IC50 [2] [µg/mL] |
| --- | --- | --- |
| C[C@]12C3=CC[C@@H](C4=CCOC4=O)[C@]3(C)CC[C@@H]1[C@@]1(C)C(=O)C=C[C@@]3(C)CO[C@@H]([C@H]2O)[C@H]13 [CERAMICINES D] | 27 (≈ 63.6 µM) | 2.15 (≈ 5.06 µM) |
| C[C@]12C3=CC[C@@H](c4ccoc4)[C@]3(C)CC[C@@H]1[C@@]1(C)C(=O)C=C[C@@]3(C)CO[C@@H]([C@H]2O)[C@H]13 [CERAMICINES B] | 15 (≈ 36.7 µM) | 0.23 (≈ 0.563 µM) |
| CC(=O)O[C@@H]1[C@H]2[C@@H](O)C=CC(=O)[C@]2(C)[C@H]2CC[C@]3(C)C(=CC[C@H]3c3ccoc3)[C@]2(C)[C@@H]1O [CERAMICINES A] |  | 44.2 (≈ 100 µM) |
| C=C(C)C(=O)O[C@H]1C[C@H]2[C@](C)(C3=CC[C@@H](c4ccoc4)[C@@]31C)[C@H](O)[C@@H]1OC[C@]3(C)C=CC(=O)[C@@]2(C)[C@@H]13 [CERAMICINES C] | 5.5 (≈ 11.2 µM) | 2.38 (≈ 4.83 µM) |
